# Data taken from patent US9096591B2, “Tetracyclic compounds” (Medivation Technologies, Inc., priority 2007, dated 2015).
# “And” between values parts separate entries of the source, which are not always exact repeats. Equal entries are not always repeated.
# Key:
# [1] = biological target: human recombinant dopamine D2S receptor (Homo sapiens, UniProt P14416); assay: Dopamine D2S antagonist activity ([35S]GTPγS binding, SPA); format: biochemical
# Description: To determine for agonist or antagonist activity of compounds of the invention in functional assays, human recombinant dopamine D2S receptor stably expressed in Chinese hamster ovary (CHO) cells (Gilliland S L and Alper R H. Naunyn-Schmiedeberg's Archives of Pharmacology. 361: 498, 2000) was used. Compounds of invention were pre-incubated with the membranes (0.05 mg/ml) and 3 μM GDP in modified HEPES buffer (20 mM HEPES, pH 7.4, 100 mM NaCl, 10 mM MgCl2, 1 mM DTT, 1 mM EDTA) for 20 minutes and Scintillation Proximity Assay (SPA) beads were then added for another 60 minutes at 30° C. The reaction was initiated by 0.3 nM [^35S]GTPγS for an additional 30 minute incubation period. […] Compounds were screened at 3 μM or lower, using 0.4% DMSO as vehicle. Assay results are presented as the percent response of specific binding in Table 9.
# [2] = biological target: T1, human recombinant dopamine D2L receptor (Homo sapiens, UniProt P14416); assay: Dopamine D2L antagonist activity ([35S]GTPγS binding, SPA); format: biochemical
# T1 construct: expressed in transfected cells; host or cells: CHO cells
# T1 sequence (P14416 whole entry): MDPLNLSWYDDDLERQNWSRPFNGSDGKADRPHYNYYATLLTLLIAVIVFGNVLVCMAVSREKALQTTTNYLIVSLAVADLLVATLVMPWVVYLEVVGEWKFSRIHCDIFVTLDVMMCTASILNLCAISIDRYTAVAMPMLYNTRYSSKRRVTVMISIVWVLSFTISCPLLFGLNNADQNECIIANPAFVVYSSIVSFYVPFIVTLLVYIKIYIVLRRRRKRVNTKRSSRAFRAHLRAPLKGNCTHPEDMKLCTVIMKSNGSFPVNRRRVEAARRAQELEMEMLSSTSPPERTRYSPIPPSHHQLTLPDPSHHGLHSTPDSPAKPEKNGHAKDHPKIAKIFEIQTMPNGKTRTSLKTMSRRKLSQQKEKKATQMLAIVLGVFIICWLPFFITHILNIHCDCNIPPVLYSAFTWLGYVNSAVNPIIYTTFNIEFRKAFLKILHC
# Description: To determine for agonist or antagonist activity of compounds of the invention in functional assays, human recombinant dopamine D2L receptor stably expressed in Chinese hamster ovary (CHO) cells (Senogles S E et al. J Biol Chem. 265(8): 4507, 1990) was used. Compounds of invention were pre-incubated with the membranes (0.1 mg/ml) and […] in modified HEPES buffer (20 mM HEPES, pH 7.4, 100 mM NaCl, 10 mM MgCl2, 1 mM DTT, 1 mM EDTA) for 20 minutes and Scintillation Proximity Assay (SPA) beads were added for another 60 minutes at 30° C. The reaction was initiated by 0.3 nM [^35S]GTPγS for an additional 15 minute incubation period. […] Compounds were screened at 3 μM or lower, using 0.4% DMSO as vehicle. Assay results are presented as the percent response of specific binding in Table 8.
# [3] = biological target: T2, human recombinant serotonin 5-HT2A receptor (Homo sapiens, UniProt P28223); assay: Serotonin 5-HT2A agonist/antagonist functional assay (calcium fluorescence, HEK-293); format: cell-based; details: antagonist mode
# T2 construct: expressed in transfected cells; host or cells: HEK-293 cells
# T2 sequence (P28223 whole entry): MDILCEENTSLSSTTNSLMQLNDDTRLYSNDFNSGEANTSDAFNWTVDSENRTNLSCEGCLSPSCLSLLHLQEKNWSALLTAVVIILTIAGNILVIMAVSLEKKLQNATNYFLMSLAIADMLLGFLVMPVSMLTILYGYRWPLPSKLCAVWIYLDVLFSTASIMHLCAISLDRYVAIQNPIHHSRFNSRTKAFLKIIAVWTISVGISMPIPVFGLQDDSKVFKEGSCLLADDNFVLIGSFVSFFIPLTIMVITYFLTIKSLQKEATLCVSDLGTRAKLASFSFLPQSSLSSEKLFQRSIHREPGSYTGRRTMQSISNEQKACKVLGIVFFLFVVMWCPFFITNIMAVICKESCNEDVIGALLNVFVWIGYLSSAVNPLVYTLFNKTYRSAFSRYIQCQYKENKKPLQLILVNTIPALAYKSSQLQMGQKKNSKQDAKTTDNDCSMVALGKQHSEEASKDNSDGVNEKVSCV
# Source text: To determine for agonist or antagonist activity of compounds of the invention in functional assays, human recombinant serotonin 5-HT2A receptor expressed in human embryonic kidney (HEK-293) cells (Jerman J C, Brough S J, Gager T, Wood M, Coldwell M C, Smart D and Middlemiss D N. Eur J Pharmacol, 414: 23-30, 2001) was used. Cells were suspended in DMEM buffer, and distributed in microplates. A cytoplasmic calcium fluorescent indicator which varies proportionally to the free cytosolic Ca^2+ ion concentration was mixed with probenicid in HBSS buffer complemented with 20 mM Hepes (pH 7.4), added into each well and equilibrated with the cells for 30 min at 37° C. followed by 30 min at 22° C. […]
# The standard reference antagonist was ketanserin, which was tested in each experiment at several concentrations to generate a concentration-response curve from which its IC50 value was calculated.
# [4] = 0.03 uM, two values = assay run twice
# [5] = two values = assay run twice, read-out: Antagonist Activity As Measured by % Inhibition D2S
# [6] = 0.3 uM, two values = assay run twice, read-out: Antagonist Activity As Measured by % Inhibition D2L
# human recombinant dopamine D2S receptor, sequence (P14416 1-414 isoform P14416-2): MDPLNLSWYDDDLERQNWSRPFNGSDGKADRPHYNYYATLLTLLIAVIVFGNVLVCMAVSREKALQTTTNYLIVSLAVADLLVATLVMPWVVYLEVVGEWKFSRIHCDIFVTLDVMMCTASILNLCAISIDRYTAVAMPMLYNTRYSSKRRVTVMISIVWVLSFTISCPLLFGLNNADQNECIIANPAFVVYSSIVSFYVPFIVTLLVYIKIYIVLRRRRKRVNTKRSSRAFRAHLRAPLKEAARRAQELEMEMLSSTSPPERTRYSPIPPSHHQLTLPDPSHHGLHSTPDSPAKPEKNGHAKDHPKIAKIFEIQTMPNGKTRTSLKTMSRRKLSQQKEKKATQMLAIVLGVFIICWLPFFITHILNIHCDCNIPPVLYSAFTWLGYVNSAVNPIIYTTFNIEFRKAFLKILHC
structure (smiles),measurement,setting,value
CN1CCc2c(c3cc(F)ccc3n2CCc2ccc(F)cc2)C1 [Compound 253],Antagonist Activity As Measured by % Inhibition D2S,[1]; [4],104% and 80%
same,inhibition at 0.1 µM,"[1]; 0.1 uM, two values = assay run twice, read-out: Antagonist Activity As Measured by % Inhibition D2S",94%
same,inhibition at 0.3 µM,[1]; [5],96%
same,Antagonist Activity As Measured by % Inhibition D2L,[2]; [4],56%
same,inhibition at 0.03 µM,"[2]; 0.03 uM, two values = assay run twice, read-out: Antagonist Activity As Measured by % Inhibition D2L",36%
same,Antagonist Activity As Measured by % Inhibition D2L,"[2]; 0.1 uM, two values = assay run twice",77%
same,inhibition at 0.1 µM,"[2]; 0.1 uM, two values = assay run twice, read-out: Antagonist Activity As Measured by % Inhibition D2L",57%
same,Antagonist Activity As Measured by % Inhibition D2L,"[2]; 0.3 uM, two values = assay run twice",89%
same,inhibition at 0.3 µM,[2]; [6],81%
same,"% of Control Agonist Response, 1st Assay",[3]; test concentration 1.00E−06 M,0%
same,"% of Control Agonist Response, 2nd Assay",[3]; test concentration 1.00E−06 M,3%
same,"% of Control Agonist Response, Mean",[3]; test concentration 1.00E−06 M,1.5%
same,"% of Control Agonist Response, 1st Assay",[3]; test concentration 1.00E−07 M,94%
same,"% of Control Agonist Response, 2nd Assay",[3]; test concentration 1.00E−07 M,95%
same,"% of Control Agonist Response, Mean",[3]; test concentration 1.00E−07 M,94.3%
same,"% of Control Agonist Response, 1st Assay",[3]; test concentration 3.00E−06 M,−3%
same,"% of Control Agonist Response, 2nd Assay",[3]; test concentration 3.00E−06 M,−3%
same,"% of Control Agonist Response, Mean",[3]; test concentration 3.00E−06 M,−2.6%
same,"% of Control Agonist Response, 1st Assay",[3]; test concentration 3.00E−07 M,36%
same,"% of Control Agonist Response, 2nd Assay",[3]; test concentration 3.00E−07 M,80%
same,"% of Control Agonist Response, Mean",[3]; test concentration 3.00E−07 M,57.9%
same,"% of Control Agonist Response, 1st Assay",[3]; test concentration 3.00E−08 M,114%
same,"% of Control Agonist Response, 2nd Assay",[3]; test concentration 3.00E−08 M,119%
same,"% of Control Agonist Response, Mean",[3]; test concentration 3.00E−08 M,116.5%
Cc1ccc2c(c1)c1c(n2CCc2ccc(C(F)(F)F)nc2)CCN(C)C1 [Compound 68],inhibition at 0.3 µM,[1]; [5],42%
same,inhibition at 1 µM,"[1]; 1 uM, read-out: Antagonist Activity As Measured by % Inhibition D2S",70%
same,inhibition at 3 µM,"[1]; 3 uM, read-out: Antagonist Activity As Measured by % Inhibition D2S",93%
same,inhibition at 0.3 µM,[2]; [6],8%
same,inhibition at 1 µM,"[2]; 1 uM, read-out: Antagonist Activity As Measured by % Inhibition D2L",27%
same,inhibition at 3 µM,"[2]; 3 uM, read-out: Antagonist Activity As Measured by % Inhibition D2L",54%
